# According to patent US12023308B2, “Agents for reversing toxic proteinopathies” (THE BROAD INSTITUTE, INC., priority 2019, dated 2024):
# pEC50, pIC50: −log10 of the molar value. Like-named read-outs stand apart in the source and are kept apart here.
# Assays:
# MUC1-fs [1] = assay: MUC1-fs immunofluorescence high-content imaging assay in P cells; assay type: cell-based, human
# Protocol: Cells grown on CellCarrier-96 or -384 well Ultra microplates (PerkinElmer) were fixed 10 min in PBS containing 4% PFA (Electron Microscopy Sciences), permeabilized 15 min in 0.5% Triton X100 (X100-100ML, Sigma-Aldrich), blocked for 1 hr in blocking reagent (100 mM Tris HCL pH8; 150 mM NaCL; 5 g/L Blocking Reagent [11096176001, Roche]) and treated for 1 hr with primary antibodies diluted in blocking reagent (1:500, monoclonal Fab-A-VSH anti-fsMUC1, AbD22655.2, Bio-Rad; 1:2000, monoclonal Mouse anti-MUC1 (CD227), 60137, Stemcell Technologies; 1:200, polyclonal, Mouse anti-GM130, ab169276, Abcam; 1:100, polyclonal, Rabbit anti-TMED9, 216201-AP, Proteintech; 1:800, polyclonal, Rabbit anti-SEC31A, 17913-1-AP, Proteintech; 1:400, monoclonal, Rabbit anti-EEA1 (C45B10), 3288S, Cell signaling technology; 1:100, polyclonal, Rabbit anti-ERGIC-53, E1031, Sigma-Aldrich; 1:400, monoclonal, Mouse anti-LAMP1 (D401S), 15665, Cell signaling technology; 1:1000, polyclonal, Rabbit anti-Calnexin, ab22595, Abcam; 1:2000, monoclonal, Rabbit anti-GM130 (D6B1) XP, 12480, Cell signaling technology; 1:200, monoclonal, Rabbit anti TNG46, ab50595, Abcam; 1:100, monoclonal, Rabbit anti-Rab7 (D95F2) XP, 9367, Cell signaling technology; 1:100, monoclonal, Rabbit anti-Rab11 (D4F5) XP, 5589, Cell signaling technology). Fixed, stained cells were washed three times in PBS and incubated for 1 hr with secondary antibodies in blocking solution (1:500, Alexa Fluor 488® Goat anti-Mouse IgG, A-11029, Thermo Fisher Scientific®; 1:500, Alexa Fluor 647® F(ab′)2-Goat anti-Rabbit IgG, A21246, Thermo Fisher Scientific®; 1:2000, Hoechst 33342, H3570, Thermo Fisher Scientific®), then washed three times in PBS and imaged.
# Cell nuclei were first identified using Hoechst staining, and cell number was calculated. Cytoplasmic regions were then detected around each nucleus based on combined channels. The cells from the edge of the field were eliminated from the analysis. For the quantification of protein abundance, the total signal intensity value for each antibody was calculated separately in the cell cytoplasm and the average signal per cell was calculated for each well.
# P cells were seeded 24 hr prior to compound treatment at a density of 12,000 cells/well in 384 well Cell Carrier Ultra plates (6057308, Perkin Elmer), pre-coated with 0.25 mg/mL Synthemax II SC Substrate (3535, Corning). Compounds of the repurposing library set (Corsello et al., 2017) were used at 5 doses (35, 3.5, 0.35, 0.035 and 0.0035 μM) for the primary screen and 10 doses (16, 5.6, 1.8, 0.6, 0.21, 0.07, 0.02, 0.008, 0.002 and 0.0008 μM) for the following screens. The compounds, in two replicates, were transferred from compound source plates to the cell plates using the HighRes Pin Tool. […] After 48 hr incubation, cells were fixed for 20 min in 4% PFA (Electron Microscopy Sciences) in PBS, washed twice, then permeabilized (10 min) with 0.5% Triton-X100 (X100-100ML, Sigma-Aldrich) in PBS and washed once more. Cells were blocked for 10 min at RT with Blocking solution (100 mM Tris HCL pH8; 150 mM NaCL; 5 g/L Blocking Reagent [11096176001, Roche]), then incubated 90 min at RT with one of the following primary antibodies in Roche Blocking solution: 1:500, monoclonal Fab-A-VSH anti-MUC1-fs, AbD22655.2, Bio-Rad; 1:2000, monoclonal mouse anti-MUC1 (214D4), 05-652-KC, Millipore; 1:1000, monoclonal, Rabbit anti-GM130 (D6B1) XP, 12480, Cell signaling technology. […]
# [2] = Dose response exposure PK study in male 129-ELITE mice; assay type: in vivo, mouse; details: single p.o. doses
# Protocol: 4) A pharmacokinetic study was performed by Charles River Labs (CRL) (Worcester, Mass., USA) in fed male 129-ELITE mice (study EF-0024-DA-MI) to determine the dose response exposure of BRD-4780, BRD-1365 and BRD-7709 in plasma, kidney, liver and eye. Brain exposure to BRD-4780 at 30 mg/kg was also evaluated A single dose of BRD-4780 was administered at 30.0 mg/kg or 100 mg/kg orally (p.o) in a clear solution of 5% dextrose in water (D5W). For BRD-1365 and BRD-7709, a single dose of either compound was administered at 10.0 mg/kg, 30.0 mg/kg, 50.0 mg/kg or 100 mg/kg orally (p.o) in a clear solution of 5% dextrose in water (D5W). Blood, kidney, liver and eye tissue were collected from n=3 mice per dose group at six time points post p.o. dose administration (1, 2, 6, 10, 16 and 24 hours) with all three compounds. Brain tissue was collected from n=3 mice per dose group at six time points post p.o. dose administration (1, 2, 6, 10, 16 and 24 hours) with BRD-4780 at 30 mg/kg. Plasma obtained by centrifugation and tissue fragments were homogenized. Plasma and tissue drug concentration was determined by LC-MS/MS and reported as drug concentration in ng/mL for plasma and ng/mg for kidney, liver and eye tissue, plotted as the mean±standard deviation concentration for males for BRD-4780 ([…]), BRD-1365 (FIG. 11K) and BRD-7709 (FIG. 11M). Standard pharmacokinetic parameters were calculated for males for BRD-4780 ([…]), BRD-1365 (FIG. 11O) and BRD-7709 (FIG. 11P).
# MUC1-fs [3] = assay: Immunoblot analysis of MUC1-fs in P cells under pathway perturbations; assay type: cell-based, human; details: for effect on BRD-4780-mediated MUC1-fs clearance (immunoblot): with BRD-4780 (5 μM)
# Source text: Cells were lysed in lysing buffer solution (9803, Cell Signaling Technology) containing protease inhibitors (05892791001, Roche) and phosphatase inhibitors (04906837001, Roche). […] To normalize protein concentration, proteins in the supernatant of cells or of kidney lysates were quantified using the Pierce BCA Protein Assay Kit (23225, Thermo Fisher Scientific®). Normalized protein lysates were then mixed with NuPAGE LDS sample buffer (NP0008, Thermo Scientific) and NuPAGE reducing agent (NP0004, Thermo Scientific) and heated to 75° C. for 10 min prior to SDS-PAGE gel electrophoresis using NuPAGE Tris-Acetate SDS Running Buffer (LA0041, Thermo Scientific) or NuPAGE MES SDS running buffer (NP0002, Thermo Fisher Scientific®) depending on protein molecular weight of interest. Electrophoretically separated proteins were transferred to a nitrocellulose membrane (1704158, BioRad) using Trans-Blot® Turbo™ Blotting System (1704155, BioRad) following manufacturer's protocol. Membranes were blocked in 5% Nonfat Dry Milk (9999S, Cell Signaling Technology) in PBS with 0.1% Tween® 20 (PBS-T), and probed with primary antibody overnight at 4° C. Following three washes with PBS-T, the membranes were incubated with secondary antibody for 1 hr at room temperature, washed three more times in PBS-T, and incubated with Super Signal West Dura (34076, Thermo Fisher Scientific®) or Super Signal West Pico (34087, Thermo Fisher Scientific®) and immunoreactive bands were imaged by G:BOX Chemi XT4 (G:BOX-CHEMI-XT4, Syngene).
# Detection of MUC1-fs in P cells at baseline and following secretory pathway perturbations was performed using immunoblot and IF analyses. For immunoblot experiments (FIGS. 5E and 13D), P cells were grown in 6-well plates to high confluence. For IF experiments (FIGS. 5B-5D and 13A-13C), P cells were plated in 384-well plates at 12,000 cells/well. Following 24 hr, cells were treated with 5 μM BRD-4780 or DMSO alone, or in combination with 100 nM Bafilomycin A (B1793, Sigma-Aldrich), or 200 ng/mL Brefeldin A (B7651, Sigma-Aldrich) for a maximum period of 24 hr as indicated. For TMED9 or Nischarin depletion experiments, transduced/transfected P cells were plated either in 96-well plates at 60,000 cells/well for IF (FIGS. 6C, 6D and 14B), or grown in 6-well plates to high confluence for immunoblot detection (FIGS. 6B and 14C). Cells were then treated with 5 μM BRD-4780 or DMSO for 24 hr (for IF detection) or 72 hr (for immunoblot analysis) and were processed accordingly.
# MUC1-fs [4] = assay: MUC1-fs subcellular distribution (co-localization IF) in P cells; assay type: cell-based, human
# Protocol: Cell nuclei were first identified using Hoechst staining, and cell number was calculated. Cytoplasmic regions were then detected around each nucleus based on combined channels. The cells from the edge of the field were eliminated from the analysis. For the quantification of protein abundance, the total signal intensity value for each antibody was calculated separately in the cell cytoplasm and the average signal per cell was calculated for each well. For quantitation of MUC1-fs cellular distribution and trafficking, the analysis was performed as described in FIG. 13A using the “spot” identification feature for the detection of MUC1-fs and the different organelles.
# Detection of MUC1-fs in P cells at baseline and following secretory pathway perturbations was performed using immunoblot and IF analyses. […] For IF experiments (FIGS. 5B-5D and 13A-13C), P cells were plated in 384-well plates at 12,000 cells/well.
# IRE = assay: RT-PCR analysis of XBP1 splicing in THP-treated P cells; assay type: cell-based, human; details: P cells treated with THP (100 nM)
# Protocol: XBP1 splicing was analyzed by standard RT-PCR. Briefly, RNA was isolated from patient cells using a RNeasy Mini Kit (74106, Qiagen). One μg of RNA was converted to cDNA using the SuperScript First-Strand Synthesis system for RT-PCR (11904-018, Invitrogen). The primer sequences used are as follows: Human XBP1 Forward Primer: 5′ TTACGAGAGAAAACTCATGGCC 3′ (SEQ ID NO: 12). Human XBP1 Reverse Primer: 5′ GGGTCCAAGTTGTCCAGAATGC 3′ (SEQ ID NO: 13). PCR was carried out on 3 μL of the resulting cDNA solution using the OneTaq Hot Start Master Mix (M0484S, NEB). Five μL of PCR product was run on a 2% agarose gel for 90 min at 150 V.
# PERK = assay: Immunoblot of eIF2a phosphorylation in P cells; assay type: cell-based, human
# Protocol: (§1) Cells were lysed in lysing buffer solution (9803, Cell Signaling Technology) containing protease inhibitors (05892791001, Roche) and phosphatase inhibitors (04906837001, Roche). Mouse kidney tissues were lysed by tissue homogenizer (Tissue-Tearo™, BioSpec Products) in lysing buffer solution containing inhibitors as above, followed by 20 min rocking at 4° C. and centrifugation at 16,000 g, 4° C. for 5 min. To normalize protein concentration, proteins in the supernatant of cells or of kidney lysates were quantified using the Pierce BCA Protein Assay Kit (23225, Thermo Fisher Scientific®). Normalized protein lysates were then mixed with NuPAGE LDS sample buffer (NP0008, Thermo Scientific) and NuPAGE reducing agent (NP0004, Thermo Scientific) and heated to 75° C. for 10 min prior to SDS-PAGE gel electrophoresis using NuPAGE Tris-Acetate SDS Running Buffer (LA0041, Thermo Scientific) or NuPAGE MES SDS running buffer (NP0002, Thermo Fisher Scientific®) depending on protein molecular weight of interest. Electrophoretically separated proteins were transferred to a nitrocellulose membrane (1704158, BioRad) using Trans-Blot® Turbo™ Blotting System (1704155, BioRad) following manufacturer's protocol. Membranes were blocked in 5% Nonfat Dry Milk (9999S, Cell Signaling Technology) in PBS with 0.1% Tween® 20 (PBS-T), and probed with primary antibody overnight at 4° C. […]
# total MUC1 mRNA = assay: MUC1 transcription assay (RT-PCR profiling screen) in P cells; assay type: cell-based, human; details: preliminary in vitro experiments in P cells
# Protocol: qPCR was performed using a previously described protocol (Bittker, 2012). P cells seeded at 2000 cells/well in 384-well, clear bottom, white wall plates were grown for 24 hr, then treated with profiling compounds transferred by pinning to duplicate plates. JQ1 (250 nM) and DMSO were used for controls as above. After 24 hr, cells were washed and cDNAs were made using ABI Cells-to-Ct kit (Thermo Fisher Scientific®, Waltham, Mass.). MUC1 and HMBS delta Cp values were determined using a Roche LightCycler 480 Instrument and TaqMan probes for MUC1 FAM (4351368 assay ID Hs00159357_m1) and HMBS VIC (4448486-assay ID Hs00609297_m1) (Thermo Fisher Scientific®, Waltham, Mass.), in 5 μL reactions. The fold change effect of the compounds on total MUC1 mRNA was normalized to JQ1 and DMSO controls, as described above.
# P cells [5] = assay: P cell viability upon THP treatment (live imaging, rescue); assay type: cell-based, human; details: Homo sapiens; DMSO pre-treatment, 5 days THP
# Protocol: To study apoptosis and cell death in N and P cells, 384 well Cell Carrier Ultra plates (6057308, Perkin Elmer), pre-coated with 0.25 mg/mL Synthemax II SC Substrate (3535, Corning) were used. […] CellEvent Caspase-3/7 Green Detection Reagent (C10423, Thermo Fisher Scientific®) and DRAQ7 (DR71000, Biostatus) were used at 1:5000 to monitor apoptosis and cell death respectively. Cells were imaged daily during 4 days to monitor viability and image analysis was performed as described below. For rescue experiments, P cells were plated on 96 well Cell Carrier Ultra microplates (6055302, Perkin Elmer) at 30,000 cells/well and cultured for 24 hr. BRD-4780 (5 μM) was applied as a pretreatment for 48 hr prior to thapsigargin exposure and throughout the experiment. Thapsigargin was applied at increasing doses and the plates were imaged daily thereafter.
# For the measurement of P cell rescue from THP-induced cell death by BRD-4780 (FIGS. 3I and 3J), no dyes were added to avoid any influence on cell growth. Digital phase contrast images were used for cell identification and count, and autofluorescence in the far-red channel was used for detection of dead cells. Cells with no autofluorescence were identified and calculated as live cell.
# P cells were seeded 12 hr prior to profiling compound treatment at a density of 12,000 cells/well in 384 well Cell Carrier Ultra plates (6057308, Perkin Elmer), pre-coated with 0.25 mg/mL Synthemax II SC Substrate (3535, Corning). After 24 hr, CellEvent Caspase-3/7 Green Detection Reagent (C10423, Thermo Fisher Scientific®) and DRAQ7 (DR71000, Biostatus) were added at 1:5000 final dilution in the presence or absence of thapsigargin (100 nM). Cells were imaged daily during 7 days to monitor viability. Image acquisition and analysis was done as described above and viability was assessed as fraction of live cells at day 5 of thapsigargin treatment, and at the day 6 for DMSO.
# P cells [6] = assay: THP-induced apoptosis (caspase 3/7) in N and P cells; assay type: cell-based, human; details: P cells compared to N cells, 72 hour
# Protocol: To study apoptosis and cell death in N and P cells, 384 well Cell Carrier Ultra plates (6057308, Perkin Elmer), pre-coated with 0.25 mg/mL Synthemax II SC Substrate (3535, Corning) were used. […] CellEvent Caspase-3/7 Green Detection Reagent (C10423, Thermo Fisher Scientific®) and DRAQ7 (DR71000, Biostatus) were used at 1:5000 to monitor apoptosis and cell death respectively. Cells were imaged daily during 4 days to monitor viability and image analysis was performed as described below. For rescue experiments, P cells were plated on 96 well Cell Carrier Ultra microplates (6055302, Perkin Elmer) at 30,000 cells/well and cultured for 24 hr. […]
# Caspase 3/7 activation and/or DRAQ7 staining were used to calculate the fraction of cells going through apoptosis and/or cell death, respectively. Single cells were first identified using the digital phase contrast channel and cell number was calculated. Fluorescence intensities were then measured and the threshold for Caspase 3/7 and DRAQ7 positive staining was determined. As an output, the fraction of live (neither caspase3/7 nor DRAQ7 signal detected), apoptotic (caspase3/7 positive) or dead cells (DRAQ7 positive) was calculated in each well at a particular time point.
# Cell viability was determined using caspase activation as described above.
# ATF6 = assay: Immunoblot of BiP in THP-treated P cells; assay type: cell-based, human; details: P cells treated with THP (100 nM)
# Protocol: as §1
compound,measurement,setting,value
"CC(C)[C@H]1[C@@H]2CC[C@@H](C2)[C@@H]1N (single isomer, unassigned) [BRD-1365]",FS MUC1 cytoplasm EMax,MUC1-fs [1]; high-content imaging assay,−39%
same,pIC50,MUC1-fs [1]; read-out: FS MUC1 cytoplasm IC50; high-content imaging assay,6.14
same,dose proportionality of AUC exposures,[2],not dose proportional
"CC(C)[C@@H]1[C@H]2CC[C@H](C2)[C@H]1N (single isomer, unassigned) [BRD-7709]",FS MUC1 cytoplasm EMax,MUC1-fs [1]; high-content imaging assay,−39%
same,pIC50,MUC1-fs [1]; high-content imaging assay; read-out: FS MUC1 cytoplasm IC50,6.18
same,dose proportionality of AUC exposures,[2],nearly dose proportional
"C[C@H]1CCC/C=C/[C@@H]2C[C@H](O)C[C@H]2[C@H](O)/C=C/C(=O)O1 [BFA, Brefeldin A]",effect on BRD-4780-mediated MUC1-fs clearance (immunoblot),MUC1-fs [3],abrogated the effect of BRD-4780 on MUC1-fs clearance
same,MUC1-fs subcellular distribution,MUC1-fs [4],MUC1-fs accumulation in the ER
CO/C1=C\C(C)=C\[C@@H](C)[C@@H](O)[C@@H](C)C/C(C)=C/C=C/[C@H](OC)[C@@H]([C@@H](C)[C@@H](O)[C@H](C)[C@@]2(O)C[C@@H](O)[C@H](C)[C@@H](C(C)C)O2)OC1=O [Bafilomycin A],effect on BRD-4780-mediated MUC1-fs clearance (immunoblot),MUC1-fs [3],prevented BRD-4780 from clearing mutant MUC1-fs
same,MUC1-fs subcellular distribution,MUC1-fs [4],accumulation of MUC1-fs in the late secretory pathway
CC(C)C[C@H](NC(=O)[C@H](Cc1ccccc1)NC(=O)c1cnccn1)B(O)O [Bortezomib],effect on BRD-4780-mediated MUC1-fs clearance (immunoblot),MUC1-fs [3],did not affect MUC1-fs removal by BRD-4780
Cc1cc(=O)oc2c(C=O)c(O)ccc12 [Compound 4μ8c],IRE activation (XBP1 splicing),IRE,dose-dependent inhibition of XBP1 splicing
Cc1cccc(CC(=O)N2CCc3c2ccc(-c2cn(C)c4ncnc(N)c24)c3F)n1 [GSK2656157],PERK activation (eIF2a phosphorylation),PERK,dose-dependent reduction of eIF2a phosphorylation
"Cc1sc2c(c1C)C(c1ccc(Cl)cc1)=N[C@@H](CC(=O)OC(C)(C)C)c1nnc(C)n1-2 [JQ1, reference compound]",transcriptional suppression of both MUC1-fs and MUC1-wt,total MUC1 mRNA,100%
"C/C=C(/C)C(=O)O[C@H]1C(C)=C2[C@H]([C@@H]1OC(=O)CCCCCCC)[C@@](C)(OC(C)=O)C[C@H](OC(=O)CCC)[C@@]1(O)[C@H]2OC(=O)[C@@]1(C)O [THP, thapsigargin, reference compound]",pEC50,P cells [5],7.77
same,susceptibility of P cells to THP-induced apoptosis,P cells [6],higher susceptibility to apoptosis compared to N cells
PF-429242,ATF6 activation (BiP abundance),ATF6,dose-dependent reduction of BiP abundance
same,MUC1-fs abundance (immunoblot),"MUC1-fs [3]; 10 μM, 24 hours",MUC1-fs accumulation
